In US11000033B2, “Ketone or oxime compound, and herbicide” (NISSAN CHEMICAL CORPORATION, priority 2014, dated 2021):

What was measured:
Format in all cases: in vivo
[1] = test system: Amaranthus retroflexus; assay: Test Example 4: herbicidal effect by soil treatment (symbol N); details: application herbicide amount 320 g/ha
Procedure, shortened: (§1)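 Seeds were sown in sterilized diluvial soil, covered with about 1.5 cm of soil, and the soil surface was sprayed with a water-diluted emulsion of the compound at a predetermined rate. Plants grew in a greenhouse at 25° C. to 30° C.; effects were scored visually 3 weeks after application.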

[2] = test system: Galium spurium; assay: Test Example 4: herbicidal effect by soil treatment (symbol Q); details: application herbicide amount 320 g/ha
Procedure, shortened: as §1

[3] = test system: Echinochloa oryzacola Vasing.; assay: Test Example 2: herbicidal activity, application during weed generation in submerged conditions (symbol A); details: Table 23; application herbicide amount 320 g/ha; grade 0-5 by criteria of Test Example 1
Procedure, shortened: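 Read-out: herbicidal effect on each species rated on a visual scale 3 weeks after treatment. Plants were raised together from seed in flooded alluvial soil (4 cm water) at 25° C. to 30° C. and treated at one to two leaves by water-surface application of diluted emulsion.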

[4] = test system: Chenopodium album; assay: Test Example 5: herbicidal effect by foliage application, plastic box (symbol O); details: 320 g/ha, 3 weeks after application
Procedure, shortened: (§2)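 Effect is rated 3 weeks after a foliar spray of water-diluted emulsion concentrate at a predetermined herbicide amount. Plants had grown 14 days in a 25° C. to 30° C. greenhouse from seed in sterilized diluvial soil.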

[5] = test system: Avena fatua; assay: Test Example 5: herbicidal effect by foliage application, plastic box (symbol I); details: 320 g/ha, 3 weeks after application
Procedure, shortened: as §2

[6] = test system: Chenopodium album; assay: Test Example 4: herbicidal effect by soil treatment (symbol O); details: application herbicide amount 320 g/ha
Procedure, shortened: as §1

[7] = test system: Cyperus difformis; assay: Test Example 3: herbicidal effect by foliage application, Wagner pot (symbol E); details: application herbicide amount 320 g/ha
Procedure, shortened: (§3)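 Scoring took place 3 weeks after application, using fixed criteria. Plants had been raised from seed for 14 days at 25 to 30 °C in submerged alluvial soil before a diluted emulsion of the test compound was sprayed uniformly on the leaves.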

[8] = test system: corn; assay: Test Example 5: effect on crop by foliage application, plastic box (symbol c); details: 320 g/ha, 3 weeks after application
Procedure, shortened: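 Greenhouse culture at 25° C. to 30° C. followed spot-like sowing into sterilized diluvial soil, with seed covered by roughly 1.5 cm of soil.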

[9] = test system: wheat; assay: Test Example 4: effect on crop by soil treatment (symbol e); details: application herbicide amount 320 g/ha
Procedure, shortened: (§4)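 Steps: fill box with sterilized diluvial soil; sow seed spot-like; cover with ~1.5 cm soil; grow in greenhouse (25° C. to 30° C.).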

[10] = test system: Avena fatua; assay: Test Example 4: herbicidal effect by soil treatment (symbol I); details: application herbicide amount 320 g/ha
Procedure, shortened: as §1

[11] = test system: Stellaria media; assay: Test Example 5: herbicidal effect by foliage application, plastic box (symbol P); details: 320 g/ha, 3 weeks after application
Procedure, shortened: as §2

[12] = test system: Abutilon theophrasti; assay: Test Example 4: herbicidal effect by soil treatment (symbol M); details: application herbicide amount 320 g/ha
Procedure, shortened: as §1

[13] = test system: Lolium multiflorum Lam.; assay: Test Example 4: herbicidal effect by soil treatment (symbol K); details: application herbicide amount 320 g/ha
Procedure, shortened: as §1

[14] = test system: Leptochloa chinensis; assay: Test Example 3: herbicidal effect by foliage application, Wagner pot (symbol D); details: application herbicide amount 320 g/ha
Procedure, shortened: as §3

[15] = test system: Setaria viridis; assay: Test Example 4: herbicidal effect by soil treatment (symbol G); details: application herbicide amount 320 g/ha
Procedure, shortened: as §1

[16] = test system: Alopecurus myosuroides; assay: Test Example 4: herbicidal effect by soil treatment (symbol J); details: application herbicide amount 320 g/ha
Procedure, shortened: as §1

[17] = test system: rice; assay: Test Example 4: effect on crop by soil treatment (symbol b); details: application herbicide amount 320 g/ha
Procedure, shortened: as §4

[18] = test system: directly sowed rice plant; assay: Test Example 3: effect on crop by foliage application, Wagner pot (symbol b); details: application herbicide amount 320 g/ha
Procedure, shortened: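 Plants are raised from seed in flooded paddy conditions: water stands 0.1–0.5 cm over alluvial soil, and the pot is kept in a greenhouse at 25–30 °C. Species sown are barnyardgrass (E. crus-galli var. crus-galli), Leptochloa chinensis, Cyperus difformis and rice.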

Row | Structure (SMILES) | N: Amaranthus retroflexus, herbicidal effect grade [1] | Q: Galium spurium, herbicidal effect grade [2] | Herbicidal effect grade, A: Echinochloa oryzacola Vasing. [3] | O: Chenopodium album, herbicidal effect (criteria of Test Example 1) [4] | I: Avena fatua, herbicidal effect (criteria of Test Example 1) [5] | O: Chenopodium album, herbicidal effect grade [6] | herbicidal effect on E, grade 0-5 [7] | c: corn, effect on crop (criteria of Test Example 1) [8] | e: wheat, effect on crop grade [9] | I: Avena fatua, herbicidal effect grade [10] | P: Stellaria media, herbicidal effect (criteria of Test Example 1) [11] | M: Abutilon theophrasti, herbicidal effect grade [12] | K: Lolium multiflorum Lam., herbicidal effect grade [13] | herbicidal effect on D (Leptochloa chinensis), grade 0-5 [14] | G: Setaria viridis, herbicidal effect grade [15] | J: Alopecurus myosuroides, herbicidal effect grade [16] | b: directly sowed rice plant, effect on crop grade [17] | effect on crop b (directly sowed rice plant), grade 0-5 [18] | other results
1 | CON=C(C)CC1CC(OS(=O)(=O)N(C)C)=C(c2c(C)cc(-c3ccc(F)cc3)cc2C)C1=O (mixture of isomers) [6-060] | 5 (Herbicidal ratio of 90% or more (almost completely withered)) | 0 (Herbicidal ratio of 5% or lower (almost no effect)) | 5 (Herbicidal ratio of 90% or more (almost completely withered)) | 4 (Herbicidal ratio of 70% or higher and lower than 90%) | 5 (Herbicidal ratio of 90% or more (almost completely withered)) | 0 (Herbicidal ratio of 5% or lower (almost no effect)) | 5 (Herbicidal ratio of 90% or more (almost completely withered)) | 5 (Herbicidal ratio of 90% or more (almost completely withered)) | 0 (Herbicidal ratio of 5% or lower (almost no effect)) | 0 (Herbicidal ratio of 5% or lower (almost no effect)) | 4 (Herbicidal ratio of 70% or higher and lower than 90%) | 0 (Herbicidal ratio of 5% or lower (almost no effect)) | 3 (Herbicidal ratio of 40% or higher and lower than 70%) | 5 (Herbicidal ratio of 90% or more (almost completely withered)) | 5 (Herbicidal ratio of 90% or more (almost completely withered)) | 3 (Herbicidal ratio of 40% or higher and lower than 70%) | 3 (Herbicidal ratio of 40% or higher and lower than 70%) | 5 (Herbicidal ratio of 90% or more (almost completely withered)) | 
2 | CON=C(C)CC1CC(OC(=O)COc2ccccc2)=C(c2c(C)cc(-c3ccc(Cl)cc3)cc2OC)C1=O (stereo not drawn) [6-079] | 4 (Herbicidal ratio of 70% or higher and lower than 90%) | 0 (Herbicidal ratio of 5% or lower (almost no effect)) | 3 (Herbicidal ratio of 40% or higher and lower than 70%) | 3 (Herbicidal ratio of 40% or higher and lower than 70%) | 5 (Herbicidal ratio of 90% or more (almost completely withered)) | 0 (Herbicidal ratio of 5% or lower (almost no effect)) | 4 (Herbicidal ratio of 70% or higher and lower than 90%) | 5 (Herbicidal ratio of 90% or more (almost completely withered)) | 3 (Herbicidal ratio of 40% or higher and lower than 70%) | 0 (Herbicidal ratio of 5% or lower (almost no effect)) | 3 (Herbicidal ratio of 40% or higher and lower than 70%) | 1 (Herbicidal ratio of 5% or higher and lower than 20%) | 5 (Herbicidal ratio of 90% or more (almost completely withered)) | 5 (Herbicidal ratio of 90% or more (almost completely withered)) | 5 (Herbicidal ratio of 90% or more (almost completely withered)) | 3 (Herbicidal ratio of 40% or higher and lower than 70%) | 3 (Herbicidal ratio of 40% or higher and lower than 70%) | 5 (Herbicidal ratio of 90% or more (almost completely withered)) | 
3 | CON=C(C)CC1CC(O)=C(c2c(C)cccc2C)C1=O (stereo not drawn) [6-112] |  |  | 3 (Herbicidal ratio of 40% or higher and lower than 70%) | 0 (Herbicidal ratio of 5% or lower (almost no effect)) | 5 (Herbicidal ratio of 90% or more (almost completely withered)) |  | 4 (Herbicidal ratio of 70% or higher and lower than 90%) | 5 (Herbicidal ratio of 90% or more (almost completely withered)) |  |  | 1 (Herbicidal ratio of 5% or higher and lower than 20%) |  |  | 5 (Herbicidal ratio of 90% or more (almost completely withered)) |  |  |  | 5 (Herbicidal ratio of 90% or more (almost completely withered)) | Herbicidal effect grade, N: Amaranthus retroflexus [1]: 1 (Herbicidal ratio of 5% or higher and lower than 20%); Herbicidal effect grade, Q: Galium spurium [2]: 0 (Herbicidal ratio of 5% or lower (almost no effect)); Herbicidal effect grade, O: Chenopodium album [6]: 0 (Herbicidal ratio of 5% or lower (almost no effect)); Effect on crop grade, e: wheat [9]: 3 (Herbicidal ratio of 40% or higher and lower than 70%); Herbicidal effect grade, I: Avena fatua [10]: 1 (Herbicidal ratio of 5% or higher and lower than 20%); Herbicidal effect grade, M: Abutilon theophrasti [12]: 1 (Herbicidal ratio of 5% or higher and lower than 20%); Herbicidal effect grade, K: Lolium multiflorum Lam. [13]: 5 (Herbicidal ratio of 90% or more (almost completely withered)); Herbicidal effect grade, G: Setaria viridis [15]: 5 (Herbicidal ratio of 90% or more (almost completely withered)); Herbicidal effect grade, J: Alopecurus myosuroides [16]: 5 (Herbicidal ratio of 90% or more (almost completely withered)); Effect on crop grade, b: directly sowed rice plant [17]: 5 (Herbicidal ratio of 90% or more (almost completely withered))
4 | COC(=O)CON=C(C)CC1CC(O)=C(c2c(C)cc(C)cc2C)C1=O (stereo not drawn) [1-023] |  |  | 4 (Herbicidal ratio of 70% or higher and lower than 90%) |  |  |  | 0 (Herbicidal ratio of 5% or lower (almost no effect)) |  |  |  |  |  |  | 5 (Herbicidal ratio of 90% or more (almost completely withered)) |  |  |  | 4 (Herbicidal ratio of 70% or higher and lower than 90%) | N (Amaranthus retroflexus) herbicidal effect grade [1]: 0 (Herbicidal ratio of 5% or lower (almost no effect)); Q (Galium spurium) herbicidal effect grade [2]: 0 (Herbicidal ratio of 5% or lower (almost no effect)); O: Chenopodium album, herbicidal effect grade [4]: 0 (Herbicidal ratio of 5% or lower (almost no effect)); I: Avena fatua, herbicidal effect grade [5]: 1 (Herbicidal ratio of 5% or higher and lower than 20%); O (Chenopodium album) herbicidal effect grade [6]: 0 (Herbicidal ratio of 5% or lower (almost no effect)); c: corn, effect on crop grade [8]: 1 (Herbicidal ratio of 5% or higher and lower than 20%); e (wheat) effect on crop grade [9]: 0 (Herbicidal ratio of 5% or lower (almost no effect)); I (Avena fatua) herbicidal effect grade [10]: 0 (Herbicidal ratio of 5% or lower (almost no effect)); P: Stellaria media, herbicidal effect grade [11]: 0 (Herbicidal ratio of 5% or lower (almost no effect)); M (Abutilon theophrasti) herbicidal effect grade [12]: 0 (Herbicidal ratio of 5% or lower (almost no effect)); K (Lolium multiflorum Lam.) herbicidal effect grade [13]: 3 (Herbicidal ratio of 40% or higher and lower than 70%); G (Setaria viridis) herbicidal effect grade [15]: 3 (Herbicidal ratio of 40% or higher and lower than 70%); J (Alopecurus myosuroides) herbicidal effect grade [16]: 0 (Herbicidal ratio of 5% or lower (almost no effect)); b (directly sowed rice plant) effect on crop grade [17]: 5 (Herbicidal ratio of 90% or more (almost completely withered))
